Where “and” joins values, the source holds several entries; their conditions need not be identical. Equal entries are not always repeated.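 Cultured in 96-well plates, cells were exposed to test compound for 48 hours across five concentrations. At the GI50, growth is halved. TGI is the concentration that stops growth completely.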
Legend:
Experiment in all cases: inhibition of tumour cell growth, NCI panel, 48 h
[1] = system: ACHN renal
[2] = system: CCRF-CEM leukemia
[3] = system: HCC-2998 colon
[4] = system: MALME-3M melanoma
[5] = system: RPMI-8226 leukemia
[6] = system: SN12C renal
[7] = system: SW-620 colon
[8] = system: TK-10 renal
[9] = system: U251 CNS
[10] = system: UO-31 renal

Row | SMILES | GI50 [1] | TGI [1] | GI50 [2] | TGI [2] | GI50 [3] | TGI [3] | GI50 [4] | TGI [4] | GI50 [5] | TGI [5] | GI50 [6] | TGI [6] | GI50 [7] | TGI [7] | GI50 [8] | TGI [8] | GI50 [9] | TGI [9] | GI50 [10] | TGI [10]
1 | COc1ncnc(C2CC2)c1-c1ncc2cnn(Cc3ccc(-c4nc(C(F)(F)F)cn4C(C)C)cc3)c2n1 | 17.6 µM | 49.2 µM | 34 µM | > 100 µM | 23.3 µM | > 100 µM | 17.8 µM | 57.3 µM | 10.9 µM | 42.2 µM | 18.6 µM | > 100 µM | 28 µM | > 100 µM | 29 µM | > 100 µM | 25.7 µM | > 100 µM | 3.25 µM | 36.7 µM
2 | O=C(O/N=C1/CCCC/C1=C\c1ccccc1)c1ccccc1 |  | > 100 µM |  | > 100 µM |  | > 100 µM |  | > 100 µM |  | > 100 µM |  | > 100 µM |  | > 100 µM |  | > 100 µM |  | > 100 µM |  | > 100 µM
3 | O=C1CCCC/C(=C/c2ccccc2)N1 |  | > 100 µM |  | > 100 µM |  | > 100 µM |  | > 100 µM |  | > 100 µM |  | > 100 µM |  | > 100 µM |  | > 100 µM |  | > 100 µM |  | > 100 µM
4 | CC[C@]12C=CCN3CC[C@@]4(c5ccc(OC)cc5N(C)[C@H]4[C@@](O)(C(=O)OC)[C@@H]1OC(=O)CCC[P+](c1ccccc1)(c1ccccc1)c1ccccc1)[C@@H]32 | 5.32 µM and 7.58 µM | 14.5 µM and 20.1 µM | 0.64 µM and 0.609 µM | 5.44 µM and 2.68 µM | 0.449 µM and 0.425 µM | 2.67 µM and 1.64 µM | 0.338 µM and 0.493 µM | 1.37 µM and 1.78 µM | 0.118 µM and 0.164 µM | 1.29 µM and 0.597 µM | 0.719 µM and 0.491 µM | 5.45 µM and 6.66 µM | 1.01 µM and 0.749 µM | 7.04 µM and 11.4 µM | 1.59 µM and 1.28 µM | 6.46 µM and 3.3 µM | 0.487 µM and 0.336 µM | 6.59 µM and 2.64 µM | 8.57 µM and 13.4 µM | 26.2 µM and 26.9 µM
5 | Oc1[nH]c2ccccc2c1N=Nc1ccccc1Cl |  | 15.2 µM |  | > 100 µM |  | > 100 µM |  | > 100 µM |  | > 100 µM |  | 97.7 µM |  | > 100 µM |  | 32.8 µM |  | 47.4 µM |  | > 100 µM
6 | COC(=O)c1cc2c3ccccc3n(C(C)=O)c2cn1 |  | > 100 µM |  | > 100 µM |  | > 100 µM |  | > 100 µM |  | > 100 µM |  | > 100 µM |  | > 100 µM |  | > 100 µM |  | > 100 µM |  | > 100 µM
7 | COC(=O)/C=C/c1cc(O)c2oc(-c3ccc(O)c(O)c3)c(C(=O)OC)c2c1 | 0.361 µM | 10.4 µM | 0.402 µM | > 21.8 µM | 2.09 µM | 11.2 µM | 0.397 µM | 14.4 µM | 0.316 µM | 1.75 µM | 0.576 µM | 12.2 µM | 0.124 µM | 14 µM | 3.89 µM | 16.9 µM | 0.606 µM | 13.4 µM | 1.11 µM | 10.6 µM
8 | Oc1ccc(Cl)cc1Cc1cc(Cl)cc(Cl)c1O | 3.69 µM | 18 µM | 6.53 µM | 88 µM | 6.52 µM | 18.9 µM | 3.68 µM | 18.7 µM | 3.09 µM | 11.9 µM | 3.7 µM | 21.8 µM | 5.37 µM | 19.9 µM | 7.88 µM | 44.1 µM | 5.12 µM | 50.9 µM | 3.48 µM | 15.2 µM
9 | CCCCOC(=O)C1C(c2ccc(Cl)cc2)NC(c2ccc(Cl)cc2)C(C(=O)OCCCC)S1(=O)=O (stereo not given) |  | > 100 µM |  | > 100 µM |  | > 100 µM |  | > 100 µM |  | > 100 µM |  | > 100 µM |  | > 100 µM |  | > 100 µM |  | > 100 µM |  | > 100 µM
10 | COC(=O)C1=C(c2ccc3c(c2)OCO3)O[C@H](c2cc(OC)c(OC)c(OC)c2)[C@H]1COC(C)=O |  | > 100 µM |  | > 100 µM |  | 19.6 µM |  | 92.5 µM |  | > 100 µM |  | 37.9 µM |  | > 100 µM |  | > 100 µM |  | 18.4 µM |  | 31.6 µM
11 | CC(C)(C)C(=O)OCOP(=O)(OCOC(=O)C(C)(C)C)C1CCCN(O)C1=O (stereo not given) | 0.34 µM | 7.97 µM | 0.185 µM | 2.3 µM | 0.446 µM | 5.59 µM | 0.425 µM | 5.81 µM | 0.308 µM | 1.12 µM | 0.334 µM | 14.1 µM | 0.493 µM | 42.6 µM | 0.537 µM | 8.05 µM | 0.342 µM | 5.22 µM | 0.306 µM | 6.41 µM
12 | COC(=O)C12C3C4C1C1C2C3C41C(=O)OC(C)(C)C (stereo not given) |  | > 100 µM |  | > 100 µM |  | > 100 µM |  | > 100 µM |  | > 72.3 µM |  | > 100 µM |  | > 75 µM |  | > 100 µM |  | > 100 µM |  | > 100 µM
13 | NC(=NCCCOc1ccc(Cl)cc1)Nc1ccc(C(F)(F)F)cc1 | 2.27 µM | 7.03 µM | 2.59 µM | 9.75 µM | 1.2 µM | 2.64 µM | 1.93 µM | 4.01 µM | 1.75 µM | 4.32 µM | 3.07 µM | 14.2 µM | 1.99 µM | 5.99 µM | 1.73 µM | 3.66 µM | 1.71 µM | 3.89 µM | 1.85 µM | 7.37 µM
14 | CC(C)c1ccc(Nc2ccc3c(OCCCN4CCN(C)CC4)cccc3n2)cc1 | 12.6 µM | 28 µM | 3.74 µM | 21.3 µM | 1.77 µM | 3.35 µM | 3.66 µM | 16.6 µM | 3.39 µM | 14.3 µM | 15.6 µM | 31.9 µM | 8.9 µM | 22.9 µM | 16.5 µM | 30.7 µM | 3.28 µM | 10.3 µM | 12.9 µM | 27.8 µM
15 | CC1OC(n2cc(F)c(=O)[nH]c2=O)C=CC1O (stereo not given) |  | > 100 µM |  | > 77.9 µM |  | > 100 µM |  | > 100 µM |  | > 100 µM |  | > 100 µM |  | > 71.6 µM |  | > 100 µM |  | > 100 µM |  | > 100 µM
16 | O=C1c2ccccc2C2(Br)C(=O)c3ccccc3C12 (stereo not given) |  | > 100 µM |  | > 100 µM |  | > 100 µM |  | > 100 µM |  | > 100 µM |  | > 100 µM |  | > 100 µM |  | > 100 µM |  | > 100 µM |  | > 100 µM
